US8003660B2, “Modulators of muscarinic receptors” (Vertex Pharmaceuticals Incorporated, priority 2006, dated 2011)
pEC50: −log10 of the molar value. Read-outs that look alike come from different tables or passages of the source.

Experiments:
Assay type in all cases: cell-based
M3 muscarinic receptor = target: T1, M3 muscarinic receptor (Homo sapiens, UniProt P20309); assay: Functional mobilization of intracellular calcium (FLIPR) in CHO cells expressing M3; settings: for M3 Activity: CHO cells expressing M3, FLIPR calcium assay; for Emax: CHO; for pEC50: CHO cells expressing M3, FLIPR calcium
T1 construct: expressed in transfected cells; host or cells: CHO (M3-CHO)
Procedure, shortened: (§1)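 Recombinant CHO cells loaded with Fluo-3 AM or Calcium 3 dye in pH 7.4 buffer containing 1 mM probenecid, with 0.5% final DMSO. For agonism, compound is added directly. For inhibition, it is preincubated 15 min, or co-applied, before carbachol at EC80. FLIPR fluorescence (ex 488, em 540 nm) is recorded for 60 s.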

M4 muscarinic receptor = target: T2, M4 muscarinic receptor (Homo sapiens, UniProt P08173); assay: Functional mobilization of intracellular calcium (FLIPR) in CHO cells expressing M4; settings: for M4 Activity: CHO cells expressing M4, FLIPR calcium assay; for Emax: CHO; for pEC50: CHO cells expressing M4, FLIPR calcium
T2 construct: expressed in transfected cells; host or cells: CHO (M4-CHO)
T2 sequence (P08173 1-479): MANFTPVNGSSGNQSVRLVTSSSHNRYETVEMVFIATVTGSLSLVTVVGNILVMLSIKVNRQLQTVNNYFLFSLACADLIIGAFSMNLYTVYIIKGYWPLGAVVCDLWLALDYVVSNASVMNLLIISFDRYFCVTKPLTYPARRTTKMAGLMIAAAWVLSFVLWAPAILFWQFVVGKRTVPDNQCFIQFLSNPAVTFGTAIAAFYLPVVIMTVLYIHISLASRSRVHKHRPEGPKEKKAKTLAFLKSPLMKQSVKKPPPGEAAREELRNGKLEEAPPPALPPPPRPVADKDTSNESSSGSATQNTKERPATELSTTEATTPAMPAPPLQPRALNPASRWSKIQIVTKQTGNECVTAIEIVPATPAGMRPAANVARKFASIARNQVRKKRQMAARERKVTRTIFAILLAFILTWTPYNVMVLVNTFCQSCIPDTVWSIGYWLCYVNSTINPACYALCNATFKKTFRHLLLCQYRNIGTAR
Procedure, shortened: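 Read-out: FLIPR fluorescence (ex 488, em 540 nm) over 60 s. Recombinant CHO lines are dye-loaded (Fluo-3 AM or Calcium 3) with 1 mM probenecid. For antagonist mode, compound is pre-incubated 15 min, or co-applied, then carbachol is added at 3× EC80 per subtype.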

M1 muscarinic receptor = target: T3, M1 muscarinic receptor (Homo sapiens, UniProt P11229); assay: Functional mobilization of intracellular calcium (FLIPR) in CHO cells expressing M1; settings: for M1 Activity: CHO cells expressing M1, FLIPR calcium assay; for Emax: CHO; for pEC50: CHO cells expressing M1, FLIPR calcium
T3 construct: expressed in transfected cells; host or cells: CHO (M1-CHO)
T3 sequence (P11229 1-460): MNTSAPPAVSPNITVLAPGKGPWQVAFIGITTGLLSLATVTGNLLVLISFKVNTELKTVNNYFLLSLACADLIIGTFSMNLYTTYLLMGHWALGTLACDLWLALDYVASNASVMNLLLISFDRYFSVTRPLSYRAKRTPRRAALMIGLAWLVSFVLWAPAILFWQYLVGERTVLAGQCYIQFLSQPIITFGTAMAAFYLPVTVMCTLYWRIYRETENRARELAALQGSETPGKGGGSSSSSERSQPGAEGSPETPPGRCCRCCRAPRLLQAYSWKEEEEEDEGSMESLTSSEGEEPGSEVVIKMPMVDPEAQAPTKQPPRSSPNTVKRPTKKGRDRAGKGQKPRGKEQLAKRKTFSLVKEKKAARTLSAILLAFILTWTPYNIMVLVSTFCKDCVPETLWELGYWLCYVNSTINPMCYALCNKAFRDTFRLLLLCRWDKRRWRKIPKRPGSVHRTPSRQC
Procedure, shortened: as §1

M2 muscarinic receptor = target: T4, M2 muscarinic receptor (Homo sapiens, UniProt P08172); assay: Functional mobilization of intracellular calcium (FLIPR) in CHO cells expressing M2; settings: for M2 Activity: CHO cells expressing M2, FLIPR calcium assay; for Emax: CHO; for pEC50: CHO cells expressing M2, FLIPR calcium
T4 construct: expressed in transfected cells; host or cells: CHO (M2-CHO)
T4 sequence (P08172 1-466): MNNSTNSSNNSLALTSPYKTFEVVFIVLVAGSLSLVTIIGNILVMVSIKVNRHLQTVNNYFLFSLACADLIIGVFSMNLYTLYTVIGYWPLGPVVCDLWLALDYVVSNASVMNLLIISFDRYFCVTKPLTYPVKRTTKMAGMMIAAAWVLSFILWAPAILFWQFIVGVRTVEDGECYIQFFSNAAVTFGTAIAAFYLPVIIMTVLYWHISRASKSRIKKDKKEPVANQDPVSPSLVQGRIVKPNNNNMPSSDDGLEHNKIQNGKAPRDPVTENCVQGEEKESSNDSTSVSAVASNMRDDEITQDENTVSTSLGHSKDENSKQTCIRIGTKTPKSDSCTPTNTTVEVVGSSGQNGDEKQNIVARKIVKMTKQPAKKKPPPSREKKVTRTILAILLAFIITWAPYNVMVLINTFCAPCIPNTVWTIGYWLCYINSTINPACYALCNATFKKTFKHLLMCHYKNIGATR
Procedure, shortened: as §1

[1] = 100% efficacy = maximum response obtained with the Carbachol control
[2] = 100% = maximum response obtained with the Carbachol control, read-out: M3 Efficacy
[3] = 100% = maximum response obtained with the Carbachol control, read-out: M4 Efficacy
[4] = 100% = maximum response obtained with the Carbachol control, read-out: M1 Efficacy
[5] = 100% = maximum response obtained with the Carbachol control, read-out: M2 Efficacy

T1 sequence (P20309 whole entry): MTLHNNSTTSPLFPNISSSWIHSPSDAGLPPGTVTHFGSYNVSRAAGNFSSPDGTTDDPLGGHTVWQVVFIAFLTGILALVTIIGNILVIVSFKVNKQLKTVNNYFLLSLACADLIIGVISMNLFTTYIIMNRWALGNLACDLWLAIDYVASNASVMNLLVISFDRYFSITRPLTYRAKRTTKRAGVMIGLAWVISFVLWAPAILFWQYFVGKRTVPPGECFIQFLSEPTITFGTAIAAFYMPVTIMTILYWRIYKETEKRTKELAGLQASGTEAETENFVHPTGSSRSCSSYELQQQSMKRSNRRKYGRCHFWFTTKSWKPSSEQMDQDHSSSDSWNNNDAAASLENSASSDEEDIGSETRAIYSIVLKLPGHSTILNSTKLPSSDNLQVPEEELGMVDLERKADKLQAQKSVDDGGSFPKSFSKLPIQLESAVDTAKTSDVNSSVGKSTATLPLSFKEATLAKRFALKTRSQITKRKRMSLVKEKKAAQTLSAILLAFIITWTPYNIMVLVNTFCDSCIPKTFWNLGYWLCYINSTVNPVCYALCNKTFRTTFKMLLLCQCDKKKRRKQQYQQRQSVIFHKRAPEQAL

Row | Compound | M3 Activity (M3 muscarinic receptor) | Emax (M3 muscarinic receptor; [1]) | M4 Activity (M4 muscarinic receptor) | Emax (M4 muscarinic receptor; [1]) | M1 Activity (M1 muscarinic receptor) | Emax (M1 muscarinic receptor; [1]) | M2 Activity (M2 muscarinic receptor) | Emax (M2 muscarinic receptor; [1]) | pEC50 (M3 muscarinic receptor) | Emax (M3 muscarinic receptor; [2]) | pEC50 (M4 muscarinic receptor) | Emax (M4 muscarinic receptor; [3]) | pEC50 (M1 muscarinic receptor) | Emax (M1 muscarinic receptor; [4]) | pEC50 (M2 muscarinic receptor) | Emax (M2 muscarinic receptor; [5])
1 | CC(=O)N[C@H]1CCC2(CCN(C(=O)OC(C)(C)C)CC2)c2ccccc21 [compound 272] | + (activity was measured to be greater than 5.0 μM) | < 25% | + (activity was measured to be greater than 5.0 μM) | < 25% | + (activity was measured to be greater than 5.0 μM) | < 25% | + (activity was measured to be greater than 5.0 μM) | < 25% | – | – | – | – | – | – | – | –
2 | CC(=O)N[C@H]1CCC2(CCN(CC(C)(C)C)CC2)c2ccccc21 [compound 66] | – | – | – | – | – | – | – | – | < 5.30 | < 25% | > 5.70 | 25 to 100% | > 5.70 | 25 to 100% | < 5.30 | 25 to 100%
3 | CCN(C(C)=O)[C@H]1CCC2(CCN(CCC(C)(C)C)CC2)c2cc(F)ccc21 [compound 77] | – | – | – | – | – | – | – | – | < 5.30 | < 25% | > 5.70 | 25 to 100% | > 5.70 | 25 to 100% | 5.30 to 5.70 | < 25%
4 | CC(C)(C)CCN1CCC2(CC[C@H](NC(=O)C3CC3)c3ccccc32)CC1 [compound 158] | – | – | – | – | – | – | – | – | < 5.30 | < 25% | > 5.70 | 25 to 100% | > 5.70 | 25 to 100% | > 5.70 | 25 to 100%
5 | CC(C)(C)CCN1CCC2(CC1)CC(C(=O)O)c1ccccc12 (stereo not drawn) [compound 250] | + (activity was measured to be greater than 5.0 μM) | < 25% | + (activity was measured to be greater than 5.0 μM) | 25 to 100% | + (activity was measured to be greater than 5.0 μM) | 25 to 100% | + (activity was measured to be greater than 5.0 μM) | < 25% | – | – | – | – | – | – | – | –
6 | CCCC(=O)N[C@H]1CC2(CCN(CCC(C)C)CC2)c2ccccc21 [compound 227] | + (activity was measured to be greater than 5.0 μM) | < 25% | + (activity was measured to be greater than 5.0 μM) | < 25% | + (activity was measured to be greater than 5.0 μM) | < 25% | + (activity was measured to be greater than 5.0 μM) | < 25% | – | – | – | – | – | – | – | –
7 | CC(=O)NC1CC2(CCN(C(C)C(C)C)CC2)c2ccccc21 (stereo not drawn) [compound 290] | + (activity was measured to be greater than 5.0 μM) | < 25% | + (activity was measured to be greater than 5.0 μM) | 25 to 100% | + (activity was measured to be greater than 5.0 μM) | 25 to 100% | + (activity was measured to be greater than 5.0 μM) | < 25% | – | – | – | – | – | – | – | –
8 | CC(C)(C)CCN1CCC2(CC[C@H](NC(=O)C3CCC(=O)N3)c3ccc(F)cc32)CC1 (stereo partly drawn) [compound 103] | – | – | – | – | – | – | – | – | < 5.30 | < 25% | > 5.70 | 25 to 100% | > 5.70 | 25 to 100% | > 5.70 | < 25%
9 | CC(C)(C)CCN1CCC2(CC[C@H](N3CCCC3=O)c3ccc(F)cc32)CC1 [compound 91] | – | – | – | – | – | – | – | – | < 5.30 | < 25% | > 5.70 | 25 to 100% | > 5.70 | 25 to 100% | > 5.70 | < 25%
10 | CCN(C(=O)C1CCC(OC)CC1)[C@H]1CCC2(CCN(CCC(C)(C)C)CC2)c2ccccc21 (stereo partly drawn) [compound 24] | – | – | – | – | – | – | – | – | < 5.30 | < 25% | > 5.70 | 25 to 100% | < 5.30 | < 25% | > 5.70 | 25 to 100%
11 | CC#CCN(C(C)=O)[C@H]1CCC2(CCN(CCC(C)(C)C)CC2)c2ccccc21 [compound 43] | – | – | – | – | – | – | – | – | < 5.30 | < 25% | > 5.70 | 25 to 100% | > 5.70 | 25 to 100% | > 5.70 | 25 to 100%
12 | CC(C)(C)CCN1CCC2(CC[C@@H](NC(=O)Cc3cccnc3)c3ccccc32)CC1 [compound 134] | – | – | – | – | – | – | – | – | < 5.30 | < 25% | > 5.70 | 25 to 100% | < 5.30 | < 25% | < 5.30 | < 25%
13 | CC(C)CCN1CCC2(CC1)C[C@H](NC(=O)c1ccoc1)c1ccccc12 [compound 267] | + (activity was measured to be greater than 5.0 μM) | < 25% | + (activity was measured to be greater than 5.0 μM) | < 25% | + (activity was measured to be greater than 5.0 μM) | < 25% | + (activity was measured to be greater than 5.0 μM) | < 25% | – | – | – | – | – | – | – | –
14 | C[C@H](C(=O)N[C@@H]1CCC2(CCN(CCC(C)(C)C)CC2)c2ccccc21)N1CCCCC1=O [compound 113] | – | – | – | – | – | – | – | – | < 5.30 | < 25% | > 5.70 | 25 to 100% | < 5.30 | < 25% | < 5.30 | < 25%
15 | C=CCC(C)(C)CN1CCC2(CC1)C[C@H](NC(C)=O)c1ccccc12 [compound 263] | + (activity was measured to be greater than 5.0 μM) | < 25% | ++ (activity was measured to be from 2.0 μM to 5.0 μM) | < 25% | + (activity was measured to be greater than 5.0 μM) | 25 to 100% | + (activity was measured to be greater than 5.0 μM) | < 25% | – | – | – | – | – | – | – | –
16 | CC(C)(C)CCN1CCC2(CC[C@H](NC(=O)CCOC(C)(C)C)c3ccccc32)CC1 [compound 88] | – | – | – | – | – | – | – | – | < 5.30 | < 25% | > 5.70 | 25 to 100% | > 5.70 | 25 to 100% | > 5.70 | 25 to 100%
17 | CC(=O)CCC(=O)N[C@H]1CCC2(CCN(CCC(C)(C)C)CC2)c2ccccc21 [compound 18] | – | – | – | – | – | – | – | – | < 5.30 | < 25% | > 5.70 | 25 to 100% | > 5.70 | 25 to 100% | > 5.70 | 25 to 100%
18 | CCNC(=O)CN1CCC2(CC1)C[C@H](NC(C)=O)c1ccccc12 [compound 241] | + (activity was measured to be greater than 5.0 μM) | < 25% | + (activity was measured to be greater than 5.0 μM) | < 25% | + (activity was measured to be greater than 5.0 μM) | < 25% | + (activity was measured to be greater than 5.0 μM) | < 25% | – | – | – | – | – | – | – | –
